# According to ChEMBL document CHEMBL2439962, “Fighting Obesity and Metabolic Disorders with MGAT-2 Inhibitors” (ACS Med Chem Lett, 2013):
# What was measured:
# [1] = molecular target: T1, 2-acylglycerol O-acyltransferase 2 (Homo sapiens, UniProt Q3SYC2); experiment: Inhibition of human MGAT2 by LC/MS assay
# [2] = molecular target: T1, 2-acylglycerol O-acyltransferase 2; experiment: Inhibition of human MGAT2 by SPA assay
# T1 sequence (Q3SYC2 whole entry): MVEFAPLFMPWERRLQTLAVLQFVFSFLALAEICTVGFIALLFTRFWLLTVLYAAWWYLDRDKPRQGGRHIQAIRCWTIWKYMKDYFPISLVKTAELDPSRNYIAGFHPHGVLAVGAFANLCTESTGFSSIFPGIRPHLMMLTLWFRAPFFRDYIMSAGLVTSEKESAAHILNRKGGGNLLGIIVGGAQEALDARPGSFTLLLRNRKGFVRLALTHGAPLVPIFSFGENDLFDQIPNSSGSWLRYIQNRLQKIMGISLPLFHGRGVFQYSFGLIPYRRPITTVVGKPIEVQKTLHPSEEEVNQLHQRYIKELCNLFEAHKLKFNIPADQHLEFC
SMILES,IC50 [1],IC50 [2]
Cc1ccc(C2=C(C(=O)Nc3ccno3)C(=O)N[C@@](c3ccc(OCCCC(F)(F)F)cc3)(C(F)(F)F)C2)cc1,2 nM,8 nM
Cc1ccc(C2=C(C(=O)Nc3ccc(-c4nnn[nH]4)cc3)C(=O)N[C@@](c3ccc(OCCCC(F)(F)F)cc3)(C(F)(F)F)C2)cc1,7 nM,9 nM
